Laboratory results published in USRE49080E1, “Glycoside derivatives and uses thereof” (Novartis AG, priority 2009, dated 2022).

Columns and labels:
[1] = biological target: human sodium glucose co-transporter 2 (Homo sapiens (Human), UniProt P31639); test: SGLT-2 assay: 14C-AMG uptake in CHO-hSGLT2 or HEK-hSGLT2 cells; assay type: cell-based; conditions: n = 1-4, cells stably transfected with hSGLT2, read-out: SGLT2 IC50 nM (n = 1-4)
Protocol: These cell lines transport 14 C-labelled alpha-methyl-glucopyranoside (14 C-AMG, Amersham) into the interior of the cell in sodium-dependent manner.
(§1) The SGLT-2 assay is carried out as follows: CHO-hSGLT2 cells are cultivated in Ham's F12 Medium (BioWhittaker) with 10% foetal calf serum and 250 μg/mL zeocin (Invitrogen), and HEK293-hSGLT2 cells are cultivated in DMEM medium with 10% foetal calf serum and 250 μg/mL zeocin (Invitrogen). The cells are detached from the culture flasks by washing twice with PBS and subsequently treating with trypsin/EDTA. After the addition of cell culture medium the cells are centrifuged, resuspended in culture medium and counted in a Casy cell counter. Then 40,000 cells per well are seeded into a white, 96-well plate coated with poly-D-lysine and incubated overnight at 37° C., 5% CO2. The cells are washed twice with 250 μl of assay buffer (Hanks Balanced Salt Solution, 137 mM NaCl, 5.4 mM KCl, 2.8 mM CaCl2, 1.2 mM MgSO4 and 10 mM HEPES (pH 7.4), 50 μg/mL of gentamycin). 250 μl of assay buffer and 5 μl of test compound are then added to each well and the plate is incubated for a further 15 minutes in the incubator. 5 μl of 10% DMSO are used as the negative control. The reaction is started by adding 5 μl of 14 C-AMG (0.05 μCi) to each well. After 2 hours' incubation at 37° C., 5% CO2, the cells are washed again with 250 μl of PBS […] and then lysed by the addition of 25 μl of 0.1 N NaOH (5 min. at 37° C.). 200 μl of MicroScint20 (Packard) are added to each well and incubation is continued for a further 20 min at 37° C. After this incubation the radioactivity of the 14 C-AMG absorbed is measured in a Topcount (Packard) using a 14 C scintillation program.

human SGLT1 = human SGLT1 (Homo sapiens (Human), UniProt P13866); test: SGLT1 assay: analogous test with hSGLT1 cDNA expressed in CHO-K1 or HEK293 cells; assay type: cell-based; conditions: n = 1-4; 14C-AMG uptake, cells expressing hSGLT1
Sequence of human SGLT1 (P13866 whole entry): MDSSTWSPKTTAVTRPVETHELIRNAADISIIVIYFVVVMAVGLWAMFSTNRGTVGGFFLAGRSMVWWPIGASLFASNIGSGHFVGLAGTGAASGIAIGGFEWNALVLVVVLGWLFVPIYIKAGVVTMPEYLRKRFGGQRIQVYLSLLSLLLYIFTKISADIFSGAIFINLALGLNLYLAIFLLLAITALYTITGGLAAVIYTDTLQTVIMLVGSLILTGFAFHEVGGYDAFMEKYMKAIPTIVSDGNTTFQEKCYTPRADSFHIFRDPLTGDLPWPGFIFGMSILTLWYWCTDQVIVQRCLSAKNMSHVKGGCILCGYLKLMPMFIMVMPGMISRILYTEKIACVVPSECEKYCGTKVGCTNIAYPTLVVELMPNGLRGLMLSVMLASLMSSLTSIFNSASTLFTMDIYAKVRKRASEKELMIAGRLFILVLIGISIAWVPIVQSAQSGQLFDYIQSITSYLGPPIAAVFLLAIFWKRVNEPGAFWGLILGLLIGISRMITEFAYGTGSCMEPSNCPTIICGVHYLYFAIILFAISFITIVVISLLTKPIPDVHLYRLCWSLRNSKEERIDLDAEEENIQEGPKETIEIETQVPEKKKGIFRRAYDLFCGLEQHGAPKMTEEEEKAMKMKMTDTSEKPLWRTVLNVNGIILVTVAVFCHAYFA
Protocol: as §1
To determine the selectivity with respect to human SGLT1 an analogous test is set up in which the cDNA for hSGLTI (Genbank Ace. No. NM000343) instead of hSGLT2 cDNA is expressed in CHO-K1 or HEK293 cells.

Sequence of human sodium glucose co-transporter 2 (P31639 whole entry): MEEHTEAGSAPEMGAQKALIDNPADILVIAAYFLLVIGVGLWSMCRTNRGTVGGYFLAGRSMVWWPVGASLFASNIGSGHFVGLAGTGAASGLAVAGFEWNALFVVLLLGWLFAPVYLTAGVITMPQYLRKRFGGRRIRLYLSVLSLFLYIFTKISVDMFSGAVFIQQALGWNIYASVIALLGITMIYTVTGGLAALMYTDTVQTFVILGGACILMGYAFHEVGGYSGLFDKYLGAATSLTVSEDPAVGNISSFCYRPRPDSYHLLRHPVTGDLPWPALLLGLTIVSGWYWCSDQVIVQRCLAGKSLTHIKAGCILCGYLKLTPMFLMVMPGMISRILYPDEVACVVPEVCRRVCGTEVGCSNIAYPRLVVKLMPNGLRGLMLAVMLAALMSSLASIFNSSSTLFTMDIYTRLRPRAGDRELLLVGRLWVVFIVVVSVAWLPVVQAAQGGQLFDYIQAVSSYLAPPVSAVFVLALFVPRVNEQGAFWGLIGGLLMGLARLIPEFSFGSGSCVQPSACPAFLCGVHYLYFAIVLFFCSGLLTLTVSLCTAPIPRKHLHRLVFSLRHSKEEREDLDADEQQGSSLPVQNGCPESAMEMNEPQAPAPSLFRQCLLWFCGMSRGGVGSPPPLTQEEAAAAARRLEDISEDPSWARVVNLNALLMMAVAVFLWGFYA

Structure (SMILES) | IC50 [1] [nM] | IC50 (human SGLT1) [nM]
COc1ccc([C@@H]2O[C@H](CO)[C@@H](O)[C@H](O)[C@H]2O)cc1Cc1ccc2c(c1)NCCO2 [Example 31, (2S,3R,4R,5S,6R)-2-[3-(3,4-Dihydro-2H-benzo[1,4]oxazin-6-ylmethyl)-4-methoxy-phenyl]-6-hydroxymethyl-tetrahydro-pyran-3,4,5-triol] | 1.2 | 404
OC[C@H]1O[C@@H](c2ccc(OC(F)(F)F)c(Cc3ccc4c(c3)CCCO4)c2)[C@H](O)[C@@H](O)[C@@H]1O [Example 33, (2S,3R,4R,5S,6R)-2-(3-Chroman-6-ylmethyl-4-trifluoromethoxy-phenyl)-6-hydroxymethyl-tetrahydro-pyran-3,4,5-triol] | 11 | 157
O=C1CCOc2ccc(Cc3cc([C@@H]4O[C@H](CO)[C@@H](O)[C@H](O)[C@H]4O)ccc3Cl)cc21 [Example 35, 6-[2-Chloro-5-((2S,3R,4R,5S,6R)-3,4,5-trihydroxy-6-hydroxymethyl-tetrahydro-pyran-2-yl)-benzyl]-chroman-4-one] | 9.5 | 1100
COc1ccc([C@@H]2O[C@H](CO)[C@@H](O)[C@H](O)[C@H]2O)cc1Cc1ccc2c(c1)CCC1(CCC1)O2 [Example 41, (2S,3R,4R,5S,6R)-2-[4-methoxy-3-(spiro[chromane-2,1′-cyclobutane]-6-ylmethyl)phenyl]-6-(hydroxymethyl)tetrahydropyran-3,4,5-triol] | 16.2 | 1620
O=C1COc2cc(Cc3cc([C@@H]4O[C@H](CO)[C@@H](O)[C@H](O)[C@H]4O)ccc3Cl)ccc2N1 [Example 42, 7-[2-Chloro-5-((2S,3R,4R,5S,6R)-3,4,5-trihydroxy-6-hydroxymethyl-tetrahydro-pyran-2-yl)-benzyl]-4H-benzo[1,4]oxazin-3-one] | 0.35 | 105
COc1ccc([C@@H]2O[C@H](CO)[C@@H](O)[C@H](O)[C@H]2O)cc1Cc1ccc2c(c1)OCC(=O)N2 [Example 43, 7-[2-Methoxy-5-((2S,3R,4R,5S,6R)-3,4,5-trihydroxy-6-hydroxymethyl-tetrahydro-pyran-2-yl)-benzyl]-4H-benzo[1,4]oxazin-3-one] | 3.9 | 59
CC1(C)Oc2ccc(Cc3cc([C@@H]4O[C@H](CO)[C@@H](O)[C@H](O)[C@H]4O)ccc3Cl)cc2NC1=O [Example 46, 6-[2-Chloro-5-((2S,3R,4R,5S,6R)-3,4,5-trihydroxy-6-hydroxymethyl-tetrahydro-pyran-2-yl)-benzyl]-2,2-dimethyl-4H-benzo[1,4]oxazin-3-one] | 14 | > 3900
O=C1COc2ccc(Cc3cc([C@@H]4O[C@H](CO)[C@@H](O)[C@H](O)[C@H]4O)ccc3Cl)cc2N1 [Example 47, 6-(2-chloro-5-((2S,3R,4R,5S,6R)-3,4,5-trihydroxy-6-(hydroxymethyl)tetrahydro-2H-pyran-2-yl)benzyl)-2H-benzo[b][1,4]oxazin-3(4H)-one] | 16.5 | > 3200
OC[C@H]1O[C@@H](c2ccc(C3CC3)c(Cc3ccc4c(c3)NCCO4)c2)[C@H](O)[C@@H](O)[C@@H]1O [Example 65, (2S,3R,4R,5S,6R)-2-[4-Cyclopropyl-3-(3,4-dihydro-2H-benzo[1,4]oxazin-6-ylmethyl)-phenyl]-6-hydroxymethyl-tetrahydro-pyran-3,4,5-triol] | 2.7 | 170
CCc1ccc([C@@H]2O[C@H](CO)[C@@H](O)[C@H](O)[C@H]2O)cc1Cc1ccc2c(c1)NCCO2 [Example 66, (2S,3R,4R,5S,6R)-2-[3-(3,4-Dihydro-2H-benzo[1,4]oxazin-6-ylmethyl)-4-ethyl-phenyl]-6-hydroxymethyl-tetrahydro-pyran-3,4,5-triol] | 0.9 | 100
CC(C)c1ccc([C@@H]2O[C@H](CO)[C@@H](O)[C@H](O)[C@H]2O)cc1Cc1ccc2c(c1)NCCO2 [Example 69, (2S,3R,4R,5S,6R)-2-[3-(3,4-Dihydro-2H-benzo[1,4]oxazin-6-ylmethyl)-4-isopropyl-phenyl]-6-hydroxymethyl-tetrahydro-pyran-3,4,5-triol] | 1.2 | 37
CC(C)c1ccc([C@@H]2O[C@H](CO)[C@@H](O)[C@H](O)[C@H]2O)cc1Cc1ccc2c(c1)NCCC2 [Example 71, (2R,3S,4R,5R,6S)-2-Hydroxymethyl-6-[4-isopropyl-3-(1,2,3,4-tetrahydro-quinolin-7-ylmethyl)-phenyl]-tetrahydro-pyran-3,4,5-triol] | 1.5 | 19
